The results in this text go back to patent US6462038B1, “Androgen receptor modulator compounds and methods” (Ligand Pharmaceuticals, Inc., priority 1999, dated 2002).

What all share (format): cell-based
One test deals with T1, PR (Homo sapiens, UniProt P06401).
T1 construct: expressed in transfected cells; host or cells: CV-1 cells
T1 sequence (P06401 1-933): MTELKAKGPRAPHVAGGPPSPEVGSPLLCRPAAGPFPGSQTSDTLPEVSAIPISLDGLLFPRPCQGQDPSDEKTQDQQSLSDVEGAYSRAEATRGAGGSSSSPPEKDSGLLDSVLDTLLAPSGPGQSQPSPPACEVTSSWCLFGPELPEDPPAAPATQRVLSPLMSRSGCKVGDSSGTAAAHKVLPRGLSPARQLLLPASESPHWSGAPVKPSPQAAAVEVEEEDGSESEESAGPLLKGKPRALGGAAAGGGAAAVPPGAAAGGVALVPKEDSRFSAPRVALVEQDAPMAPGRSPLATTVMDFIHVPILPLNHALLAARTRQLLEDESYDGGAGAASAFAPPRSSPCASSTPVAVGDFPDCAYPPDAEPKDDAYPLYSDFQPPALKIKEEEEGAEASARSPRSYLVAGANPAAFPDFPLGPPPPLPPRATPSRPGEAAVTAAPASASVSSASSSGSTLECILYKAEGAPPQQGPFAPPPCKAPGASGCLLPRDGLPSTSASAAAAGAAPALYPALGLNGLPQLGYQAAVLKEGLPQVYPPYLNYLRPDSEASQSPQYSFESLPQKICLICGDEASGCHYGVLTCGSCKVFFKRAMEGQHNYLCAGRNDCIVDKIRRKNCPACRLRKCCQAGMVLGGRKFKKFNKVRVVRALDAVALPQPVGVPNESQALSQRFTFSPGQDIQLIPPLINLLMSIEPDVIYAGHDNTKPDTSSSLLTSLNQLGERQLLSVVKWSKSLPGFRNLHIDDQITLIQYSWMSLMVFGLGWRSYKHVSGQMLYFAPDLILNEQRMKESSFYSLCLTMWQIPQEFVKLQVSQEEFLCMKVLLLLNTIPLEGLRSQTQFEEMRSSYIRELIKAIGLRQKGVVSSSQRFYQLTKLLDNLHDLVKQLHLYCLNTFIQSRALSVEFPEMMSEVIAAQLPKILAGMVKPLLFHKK
Kind of test: co-transfection assay, PR antagonist (in presence of progesterone). The protocol: (§1) CV-1 cells (African green monkey kidney fibroblasts) were cultured in the presence of Dulbecco's Modified Eagle Medium (DMEM) supplemented with 10% charcoal resin-stripped fetal bovine serum (CH-FBS) then transferred to 96-well microtiter plates one day prior to transfection.
(§2) Three to four replicates were used for each sample.
(§3) After 40 hours, the cells were washed with PBS, lysed with a Triton X-100-based buffer and assayed for LUC and β-Gal activities using a luminometer or spectrophotometer, respectively. For each replicate, the normalized response (NR) was calculated as: […]

A further test has as its target T2, ER (Homo sapiens, UniProt P03372).
T2 construct: expressed in transfected cells; host or cells: CV-1 cells
Kind of test: co-transfection assay, ER agonist. The protocol:
as §1, §2, §3

The target of the next test is T3, MR (Homo sapiens, UniProt P08235).
T3 construct: expressed in transfected cells; host or cells: CV-1 cells
T3 sequence (P08235 1-984): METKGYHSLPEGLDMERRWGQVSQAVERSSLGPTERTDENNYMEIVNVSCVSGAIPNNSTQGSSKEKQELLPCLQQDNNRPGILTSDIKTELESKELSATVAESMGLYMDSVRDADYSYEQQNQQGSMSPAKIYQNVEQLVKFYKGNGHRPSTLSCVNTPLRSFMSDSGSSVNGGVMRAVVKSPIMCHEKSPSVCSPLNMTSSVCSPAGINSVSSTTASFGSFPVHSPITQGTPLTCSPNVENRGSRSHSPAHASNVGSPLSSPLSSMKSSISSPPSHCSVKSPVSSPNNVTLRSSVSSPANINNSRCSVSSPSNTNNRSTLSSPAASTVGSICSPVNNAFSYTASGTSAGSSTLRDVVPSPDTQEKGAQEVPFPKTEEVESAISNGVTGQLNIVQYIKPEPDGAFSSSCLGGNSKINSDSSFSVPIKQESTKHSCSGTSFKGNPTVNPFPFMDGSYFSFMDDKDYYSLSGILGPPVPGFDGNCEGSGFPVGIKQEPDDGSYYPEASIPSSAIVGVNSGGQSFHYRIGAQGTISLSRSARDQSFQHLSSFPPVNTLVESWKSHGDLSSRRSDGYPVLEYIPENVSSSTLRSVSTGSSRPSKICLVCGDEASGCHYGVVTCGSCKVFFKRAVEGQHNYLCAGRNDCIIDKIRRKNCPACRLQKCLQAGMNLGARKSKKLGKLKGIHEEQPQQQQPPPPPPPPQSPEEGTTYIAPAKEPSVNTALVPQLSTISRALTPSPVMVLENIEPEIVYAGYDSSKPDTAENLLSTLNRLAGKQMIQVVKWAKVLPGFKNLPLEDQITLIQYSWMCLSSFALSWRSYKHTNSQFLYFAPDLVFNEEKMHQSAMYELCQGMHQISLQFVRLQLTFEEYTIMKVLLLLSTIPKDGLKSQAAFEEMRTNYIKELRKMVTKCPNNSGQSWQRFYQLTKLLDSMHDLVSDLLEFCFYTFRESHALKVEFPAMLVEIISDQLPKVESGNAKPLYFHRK
Kind of test: co-transfection assay, MR antagonist. The procedure:
as §1, §2, §3

A value given as a limit tells only on which side of the number the result lay.

T2 sequence (P03372 whole entry): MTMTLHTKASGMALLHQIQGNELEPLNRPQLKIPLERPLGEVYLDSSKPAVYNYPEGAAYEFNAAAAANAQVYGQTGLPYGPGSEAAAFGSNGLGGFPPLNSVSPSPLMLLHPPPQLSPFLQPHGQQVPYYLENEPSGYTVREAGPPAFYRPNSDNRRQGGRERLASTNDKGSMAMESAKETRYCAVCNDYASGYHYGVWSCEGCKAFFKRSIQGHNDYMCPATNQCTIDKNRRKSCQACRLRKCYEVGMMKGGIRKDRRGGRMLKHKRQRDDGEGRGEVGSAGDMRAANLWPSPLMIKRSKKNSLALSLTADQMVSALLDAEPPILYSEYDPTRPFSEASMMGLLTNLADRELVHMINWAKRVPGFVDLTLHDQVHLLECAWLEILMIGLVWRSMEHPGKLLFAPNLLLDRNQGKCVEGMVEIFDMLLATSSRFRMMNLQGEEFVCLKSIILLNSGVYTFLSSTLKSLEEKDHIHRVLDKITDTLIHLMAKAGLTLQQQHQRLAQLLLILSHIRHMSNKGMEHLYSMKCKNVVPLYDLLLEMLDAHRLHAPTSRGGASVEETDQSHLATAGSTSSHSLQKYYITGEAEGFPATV

As for `CN1CCOc2cc3c(cc21)c(C(F)(F)F)cc(=O)n3C` [Compound 102, 1,2,3,6-Tetrahydro-1,6-dimethyl-9-(trifluoromethyl)-7H-[1,4]oxazino[3,2-g]quinolin-7-one], the IC50 (in general, the concentration that gives 50% inhibition) is 4.1 µM at PR and above 10 µM against MR. For the same compound, the half-maximal effective concentration (EC50) (in general, the concentration at which the effect is half-maximal) on ER is above 10 µM.
For the compound `CCN1CCOc2cc3c(cc21)c(C(F)(F)F)cc(=O)n3C` [Compound 104, 1-Ethyl-1,2,3,6-tetrahydro-6-methyl-9-(trifluoromethyl)-7H-[1,4]oxazino[3,2-g]quinolin-7-one], the figures for the IC50 on PR and at MR were 2 µM and 1.8 µM, respectively. The same compound registered an EC50 on ER above 10 µM.
Turning to `O=c1cc(C(F)(F)F)c2cc3c(cc2[nH]1)OCCN3CC(F)(F)F` [Compound 105, 1,2,3,6-Tetrahydro-1-(2,2,2-trifluoroethyl)-9-(trifluoromethyl)-7H-[1,4]oxazino[3,2-g]quinolin-7-one], the IC50 at PR is 3 µM; on MR, above 10 µM. Further, at ER, the EC50 is above 10 µM.
For `O=C1COc2cc3[nH]c(=O)cc(C(F)(F)F)c3cc2N1CC(F)(F)F` [Compound 137, 1,6-Dihydro-1-(2,2,2-trifluoroethyl)-9-(trifluoromethyl)-3H-[1,4]oxazino[3,2-g]-quinolin-2,7-dione], the IC50 at PR and on MR was above 10 µM throughout. At ER, the EC50 is above 10 µM.
